Values of other authors in patent US20090198080A1, “METHOD FOR THE PREPARATION OF ARYL ETHERS” (Pfizer Inc, priority 2004, published 2009).

Columns and labels:
[1] = different animal models
8-OH-DPAT hypothermia = details: in vivo

## CCOc1ccccc1O[C@@H](c1ccccc1)[C@@H]1CNCCO1 (racemic) [reboxetine, 2-[α-(2-ethoxyphenoxy)benzyl]morpholine]
Monoamine oxidase (MAO)
  monoamine oxidase (MAO) inhibitory activity: substantially devoid
Norepinephrine reuptake
  norepinephrine reuptake inhibitory activity: selective norepinephrine reuptake inhibitor
Dopamine reuptake
  dopamine reuptake inhibitory activity: no dopamine reuptake inhibitory activity
[1]
  anticholinergic binding activity: no anticholinergic binding activity
Serotonin reuptake
  serotonin reuptake inhibitory activity: only marginal
8-OH-DPAT hypothermia
  effect in the 8-OH-DPAT hypothermia test: ineffective
